According to US10821115B2, “Compounds that inhibit Mcl-1 protein” (priority 2017, dated 2020):
Read-outs that look alike come from different tables or passages of the source.

Key:
[1] = molecular target: recombinant human Mcl-1 (residues 171-327) / Bim interaction (Homo sapiens (Human), UniProt Q07820); experiment: biochemical; assay type: binding; conditions: read-out: Mcl-1 HTRF IC50
[2] = tested on: human multiple myeloma cell line, OPM-2; experiment: Cell viability assay (OPM-2 10 FBS), CellTiter-Glo; assay type: cell-based
Outline: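 3000 cells/well, RPMI 1640 + 10% FBS; serial compound dilutions, 16 h, 37 °C/5% CO2.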

[3] = TR-FRET, Mcl-1(171-327) / biotin-Bim (51-76)
[4] = Homo sapiens, OPM-2, 16 h, read-out: OPM-2 10% FBS IC50 IP, OPM-2 cells, 10% FBS, 16 h, CellTiter-Glo
[5] = read-out: OPM-2 10% FBS IC50 IP, OPM-2 cells, 10% FBS, 16 h, CellTiter-Glo

Chain of recombinant human Mcl-1 (residues 171-327) / Bim interaction (Q07820 171-327): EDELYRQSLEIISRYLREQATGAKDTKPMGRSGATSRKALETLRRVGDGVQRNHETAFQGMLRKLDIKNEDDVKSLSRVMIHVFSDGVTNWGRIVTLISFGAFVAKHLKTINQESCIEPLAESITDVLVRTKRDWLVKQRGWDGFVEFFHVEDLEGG

SMILES | IC50 [1, 3] | IC50 [2, 4] | IC50 [2, 5] | IC50 [1]
CC[C@@H]1CCCC[C@](O)(COC)[C@@H]2CC[C@H]2CN2C[C@@]3(CCCc4cc(Cl)ccc43)COc3ccc(cc32)C(=O)NS1(=O)=O [Example 100040, (1S,3′R,6′R,7′R,12′R)-6-chloro-12′-ethyl-7′-hydroxy-7′-(methoxymethyl)-3,4-dihydro-2H,15′H-spiro[naphthalene-1,22′-[20]oxa[13]thia[1,14]diazatetracyclo [14.7.2.0~3,6~.0~19,24~]pentacosa[16,18,24]trien]-15′-one 13′,13′-dioxide] | 2.75 nM | 4950 nM |  | 
CC[C@@H]1CCCC[C@](CO)(OC)[C@@H]2CC[C@H]2CN2C[C@@]3(CCCc4cc(Cl)ccc43)COc3ccc(cc32)C(=O)NS1(=O)=O [Example 100041, (1S,3′R,6′R,7′S,12′R)-6-chloro-12′-ethyl-7′-(hydroxymethyl)-7′-methoxy-3,4-dihydro-2H,15′H-spiro[naphthalene-1,22′-[20]oxa[13]thia[1,14]diazatetracyclo [14.7.2.0~3,6~.0~19,24~]pentacosa[16,18,24]trien]-15′-one 13′,13′-dioxide] | 3.36 nM | 4990 nM |  | 
CCOC(=O)COC[C@]1(OCC(=O)OCC)CCCC[C@@H](CC)S(=O)(=O)NC(=O)c2ccc3c(c2)N(C[C@@H]2CC[C@H]21)C[C@@]1(CCCc2cc(Cl)ccc21)CO3 [Example 100042, ethyl (((1S,3′R,6′R,7′S,12′R)-6-chloro-7′-(2-ethoxy-2-oxoethoxy)-12′-ethyl-13′,13′-dioxido-15′-oxo-3,4-dihydro-2H-spiro[naphthalene-1,22′-[20]oxa[13]thia[1,14]diazatetracyclo [14.7.2.0~3,6~.0~19,24~]pentacosa[16,18,24]trien]-7′-yl)methoxy)acetate] | 4.86 nM | 2220 nM |  | 
CC[C@@H]1CCCC[C@@]2(COCC(=O)O2)[C@@H]2CC[C@H]2CN2C[C@@]3(CCCc4cc(Cl)ccc43)COc3ccc(cc32)C(=O)NS1(=O)=O [Example 100043, (2S,3′R,6′R,12′R,22′S)-6″-chloro-12′-ethyl-3″,4″-dihydro-2″H,6H,15′H-dispiro[1,4-dioxane-2,7′-[20]oxa[13]thia[1,14]diazatetracyclo [14.7.2.0~3,6~.0~19,24~]pentacosa[16,18,24]triene-22′,1″-naphthalene]-6,15′-dione 13′,13′-dioxide] | 1.67 nM | 7280 nM |  | 
CC[C@@H]1CC/C=C/[C@](O)(C(F)(F)F)[C@@H]2CC[C@H]2CN2C[C@@]3(CCCc4cc(Cl)ccc43)COc3ccc(cc32)C(=O)NS1(=O)=O [Example 100044, (1S,3′R,6′R,7′R,8′E,12′R)-6-chloro-12′-ethyl-7′-hydroxy-7′-(trifluoromethyl)-3,4-dihydro-2H,15′H-spiro[naphthalene-1,22′-[20]oxa[13]thia[1,14]diazatetracyclo [14.7.2.0~3,6~.0~19,24~]pentacosa[8,16,18,24]tetraen]-15′-one 13′,13′-dioxide] | 31.1 nM |  | 7290 nM | 
C[C@@H]1[C@@H](C)C/C=C/[C@@](O)(C(F)(F)F)[C@@H]2CC[C@H]2CN2C[C@@]3(CCCc4cc(Cl)ccc43)COc3ccc(cc32)C(=O)NS1(=O)=O [Example 100045, (1S,3′R,6′R,7′S,8′E,11′S,12′R)-6-chloro-7′-hydroxy-11′,12′-dimethyl-7′-(trifluoromethyl)-3,4-dihydro-2H,15′H-spiro[naphthalene-1,22′-[20]oxa[13]thia[1,14]diazatetracyclo [14.7.2.0~3,6~.0~19,24~]pentacosa[8,16,18,24]tetraen]-15′-one 13′,13′-dioxide] | 0.308 nM | 342 nM |  | 
C[C@@H]1[C@@H](C)C/C=C/[C@](O)(C(F)(F)F)[C@@H]2CC[C@H]2CN2C[C@@]3(CCCc4cc(Cl)ccc43)COc3ccc(cc32)C(=O)NS1(=O)=O [Example 100046, (1S,3′R,6′R,7′R,8′E,11′S,12′R)-6-chloro-7′-hydroxy-11′,12′-dimethyl-7′-(trifluoromethyl)-3,4-dihydro-2H,15′H-spiro[naphthalene-1,22′-[20]oxa[13]thia[1,14]diazatetracyclo [14.7.2.0~3,6~.0~19,24~]pentacosa[8,16,18,24]tetraen]-15′-one 13′,13′-dioxide] | 3.76 nM | 976 nM |  | 
CC[C@@H]1CC/C=C/[C@](O)(C(F)(F)F)[C@@H]2CC[C@H]2CN2C[C@@]3(CCCc4cc(Cl)ccc43)COc3ccc(cc32)C(=O)NS1(=O)=O [Example 100047, (1S,3′R,6′R,7′R,8′E,12′R)-6-chloro-12′-ethyl-7′-hydroxy-7′-(trifluoromethyl)-3,4-dihydro-2H,15′H-spiro[naphthalene-1,22′-[20]oxa[13]thia[1,14]diazatetracyclo [14.7.2.0~3,6~.0~19,24~]pentacosa[8,16,18,24]tetraen]-15′-one 13′,13′-dioxide] | 5.15 nM |  | 2540 nM | 
C[C@@H]1[C@@H](C)CCC[C@](C)(O)[C@@H]2CC[C@H]2CN2C[C@@]3(CCCc4cc(Cl)ccc43)COc3ccc(cc32)C(=O)NS1(=O)=O [Example 100049, (1S,3′R,6′R,7′S,11′S,12′R)-6-chloro-7′-hydroxy-7′,11′,12′-trimethyl-3,4-dihydro-2H,15′H-spiro[naphthalene-1,22′-[20]oxa[13]thia[1,14]diazatetracyclo [14.7.2.0~3,6~.0~19,24~]pentacosa[16,18,24]trien]-15′-one 13′,13′-dioxide] | 1.26 nM | 2150 nM |  | 
C[C@@H]1[C@@H](C)C/C=C/[C@@](O)(CC#N)[C@@H]2CC[C@H]2CN2C[C@@]3(CCCc4cc(Cl)ccc43)COc3ccc(cc32)C(=O)NS1(=O)=O [Example 100050, ((1S,3′R,6′R,7′S,8′E,11′S,12′R)-6-chloro-7′-hydroxy-11′,12′-dimethyl-13′,13′-dioxido-15′-oxo-3,4-dihydro-2H-spiro[naphthalene-1,22′-[20]oxa[13]thia[1,14]diazatetracyclo [14.7.2.0~3,6~.0~19,24~]pentacosa[8,16,18,24]tetraen]-7′-yl)acetonitrile] |  |  | 3820 nM | 1.28 nM
C[C@@H]1[C@@H](C)C/C=C/[C@@](O)(CC#N)[C@@H]2CC[C@H]2CN2C[C@@]3(CCCc4cc(Cl)ccc43)COc3ccc(cc32)C(=O)NS1(=O)=O [Example 100051, ((1S,3′R,6′R,7′S,8′E,11′S,12′R)-6-chloro-7′-hydroxy-11′,12′-dimethyl-13′,13′-dioxido-15′-oxo-3,4-dihydro-2H-spiro[naphthalene-1,22′-[20]oxa[13]thia[1,14]diazatetracyclo [14.7.2.0~3,6~.0~19,24~]pentacosa[8,16,18,24]tetraen]-7′-yl)acetonitrile] |  |  | 502 nM | 0.217 nM
C[C@@H]1[C@@H](C)CCC[C@@](O)(CO)[C@@H]2CC[C@H]2CN2C[C@@]3(CCCc4cc(Cl)ccc43)COc3ccc(cc32)C(=O)NS1(=O)=O [Example 100053, (1S,3′R,6′R,7′S,11′S,12′R)-6-chloro-7′-hydroxy-7′-(hydroxymethyl)-11′,12′-dimethyl-3,4-dihydro-2H,15′H-spiro[naphthalene-1,22′-[20]oxa[13]thia[1,14]diazatetracyclo [14.7.2.0~3,6~.0~19,24~]pentacosa[16,18,24]trien]-15′-one 13′,13′-dioxide] | 0.294 nM | 609 nM |  | 
C[C@@H]1[C@@H](C)CCC[C@@]2(COC(=O)O2)[C@@H]2CC[C@H]2CN2C[C@@]3(CCCc4cc(Cl)ccc43)COc3ccc(cc32)C(=O)NS1(=O)=O [Example 100054, (3′R,4S,6′R,11′S,12′R,22′S)-6″-chloro-11′,12′-dimethyl-3″,4″-dihydro-2″H,15′H-dispiro[1,3-dioxolane-4,7′-[20]oxa[13]thia[1,14]diazatetracyclo [14.7.2.0~3,6~.0~19,24~]pentacosa[16,18,24]triene-22′,1″-naphthalene]-2,15′-dione 13′,13′-dioxide] | 4.11 nM | 9060 nM |  | 
C[C@@H]1[C@@H](C)C[C@@H]2C=CC[C@](O)(C2)[C@@H]2CC[C@H]2CN2C[C@@]3(CCCc4cc(Cl)ccc43)COc3ccc(cc32)C(=O)NS1(=O)=O [Example 100056, (1S,3′R,6′R,7′S,11′S,13′S,14′R)-6-chloro-7′-hydroxy-13′,14′-dimethyl-3,4-dihydro-2H,17′H-spiro[naphthalene-1,24′-[22]oxa[15]thia[1,16]diazapentacyclo [16.7.2.1~7,11~.0~3,6~.0~21,26~]octacosa [9,18,20,26]tetraen]-17′-one 15′,15′-dioxide] | 0.424 nM | 1680 nM |  | 
C[C@@H]1[C@@H](C)C[C@H]2C=CC[C@](O)(C2)[C@@H]2CC[C@H]2CN2C[C@@]3(CCCc4cc(Cl)ccc43)COc3ccc(cc32)C(=O)NS1(=O)=O [Example 100057, (1S,3′R,6′R,7′S,11′R,13′S,14′R)-6-chloro-7′-hydroxy-13′,14′-dimethyl-3,4-dihydro-2H,17′H-spiro[naphthalene-1,24′-[22]oxa[15]thia[1,16]diazapentacyclo [16.7.2.1~7,11~.0~3,6~.0~21,26~]octacosa [9,18,20,26]tetraen]-17′-one 15′,15′-dioxide] | 0.568 nM | 2600 nM |  | 
C[C@@H]1[C@@H](C)C/C=C/[C@](O)(C(C)(C)C#N)[C@@H]2CC[C@H]2CN2C[C@@]3(CCCc4cc(Cl)ccc43)COc3ccc(cc32)C(=O)NS1(=O)=O [Example 100059, 2-((1S,3′R,6′R,7′R,8′E,11′S,12′R)-6-chloro-7′-hydroxy-11′,12′-dimethyl-13′,13′-dioxido-15′-oxo-3,4-dihydro-2H-spiro[naphthalene-1,22′-[20]oxa[13]thia[1,14]diazatetracyclo [14.7.2.0~3,6~.0~19,24~]pentacosa[8,16,18,24]tetraen]-7′-yl)-2-methylpropanenitrile] | 11.9 nM | 3450 nM |  | 
